According to US9546150B2, “Substituted quinazolin-4-ones for inhibiting ubiquitin specific protease 7” (HYBRIGENICS SA, priority 2011, dated 2017):

How the values were obtained:
Format in all cases: biochemical
UCH-L3 = molecular target: T1, UCH-L3 (Homo sapiens, UniProt P15374); assay: HAUbVS competition assay in HEK293 cell lysates, UCH-L3; settings: 12.5-200 μM
T1 sequence (P15374 1-230): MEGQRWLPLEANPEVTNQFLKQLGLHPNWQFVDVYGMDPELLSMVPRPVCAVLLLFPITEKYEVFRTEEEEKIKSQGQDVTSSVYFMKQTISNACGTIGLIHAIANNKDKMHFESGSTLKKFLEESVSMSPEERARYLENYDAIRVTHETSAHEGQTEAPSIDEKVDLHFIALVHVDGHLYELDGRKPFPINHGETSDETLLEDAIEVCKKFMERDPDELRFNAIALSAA

CYLD = molecular target: T2, CYLD (Homo sapiens, UniProt Q9NQC7); assay: HAUbVS competition assay in HEK293 cell lysates, CYLD; settings: 12.5-200 μM
T2 sequence (Q9NQC7 1-956): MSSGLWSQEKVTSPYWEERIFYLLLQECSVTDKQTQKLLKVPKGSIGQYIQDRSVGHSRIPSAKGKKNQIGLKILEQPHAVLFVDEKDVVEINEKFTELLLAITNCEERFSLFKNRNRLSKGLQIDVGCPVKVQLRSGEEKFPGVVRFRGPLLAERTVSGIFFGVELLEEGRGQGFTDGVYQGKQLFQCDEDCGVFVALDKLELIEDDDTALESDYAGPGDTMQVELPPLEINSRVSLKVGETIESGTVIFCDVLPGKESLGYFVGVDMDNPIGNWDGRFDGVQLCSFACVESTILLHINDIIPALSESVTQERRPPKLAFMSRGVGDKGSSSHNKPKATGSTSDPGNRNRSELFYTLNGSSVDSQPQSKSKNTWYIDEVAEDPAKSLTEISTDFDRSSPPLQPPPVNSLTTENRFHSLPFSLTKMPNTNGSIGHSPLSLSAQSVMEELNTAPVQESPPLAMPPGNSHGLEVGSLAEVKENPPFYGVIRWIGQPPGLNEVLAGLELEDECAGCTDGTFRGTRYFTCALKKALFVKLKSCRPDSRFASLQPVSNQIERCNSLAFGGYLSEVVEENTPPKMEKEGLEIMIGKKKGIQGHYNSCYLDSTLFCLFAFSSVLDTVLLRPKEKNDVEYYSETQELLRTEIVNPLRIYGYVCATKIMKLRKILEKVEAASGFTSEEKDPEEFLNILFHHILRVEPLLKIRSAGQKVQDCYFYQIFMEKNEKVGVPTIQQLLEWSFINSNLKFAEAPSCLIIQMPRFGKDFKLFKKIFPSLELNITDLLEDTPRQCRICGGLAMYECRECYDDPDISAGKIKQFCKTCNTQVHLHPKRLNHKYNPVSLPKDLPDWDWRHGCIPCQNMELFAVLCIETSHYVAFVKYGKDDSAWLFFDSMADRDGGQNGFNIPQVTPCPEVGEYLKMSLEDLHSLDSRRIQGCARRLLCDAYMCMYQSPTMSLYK

USP10 = USP10 (Homo sapiens, UniProt Q14694); assay: HAUbVS competition assay in HEK293 cell lysates, USP10; settings: 12.5-200 μM
USP7 = USP7 (Homo sapiens, UniProt Q93009); assay: Reversibility of USP7 inhibition after G50 gel filtration; design: Full-length wild-type human USP7 and its catalytic mutant; His tag (pFastBac-HT vector) (N); made in house; host or cells: Spodoptera frugiperda Sf9 (or High Five) insect cells, baculovirus; settings: 100 μM, 4 h at room temperature, USP7 100 pM
Experimental: The reversibility of inhibition was next determined by measuring the recovery of enzymatic activity after gel filtration. […] We passed some of each sample through a G50 gel filtration system (Sephadex, G50 superfine, Sigma Aldricht). The deubiquitinating activity of the G50 eluates was assessed with the Ub-AMC substrate, as described above, and compared with that of samples not subjected to G50 filtration. The reactions were monitored using the PHERAstar (BMG Labtech).

USP8 = molecular target: T3, USP8 (Homo sapiens, UniProt P40818); assay: HAUbVS competition assay in HEK293 cell lysates, USP8; design: His tag (pFastBac-HT vector); made in house; settings: 12.5-200 μM
T3 sequence (P40818 1-1118): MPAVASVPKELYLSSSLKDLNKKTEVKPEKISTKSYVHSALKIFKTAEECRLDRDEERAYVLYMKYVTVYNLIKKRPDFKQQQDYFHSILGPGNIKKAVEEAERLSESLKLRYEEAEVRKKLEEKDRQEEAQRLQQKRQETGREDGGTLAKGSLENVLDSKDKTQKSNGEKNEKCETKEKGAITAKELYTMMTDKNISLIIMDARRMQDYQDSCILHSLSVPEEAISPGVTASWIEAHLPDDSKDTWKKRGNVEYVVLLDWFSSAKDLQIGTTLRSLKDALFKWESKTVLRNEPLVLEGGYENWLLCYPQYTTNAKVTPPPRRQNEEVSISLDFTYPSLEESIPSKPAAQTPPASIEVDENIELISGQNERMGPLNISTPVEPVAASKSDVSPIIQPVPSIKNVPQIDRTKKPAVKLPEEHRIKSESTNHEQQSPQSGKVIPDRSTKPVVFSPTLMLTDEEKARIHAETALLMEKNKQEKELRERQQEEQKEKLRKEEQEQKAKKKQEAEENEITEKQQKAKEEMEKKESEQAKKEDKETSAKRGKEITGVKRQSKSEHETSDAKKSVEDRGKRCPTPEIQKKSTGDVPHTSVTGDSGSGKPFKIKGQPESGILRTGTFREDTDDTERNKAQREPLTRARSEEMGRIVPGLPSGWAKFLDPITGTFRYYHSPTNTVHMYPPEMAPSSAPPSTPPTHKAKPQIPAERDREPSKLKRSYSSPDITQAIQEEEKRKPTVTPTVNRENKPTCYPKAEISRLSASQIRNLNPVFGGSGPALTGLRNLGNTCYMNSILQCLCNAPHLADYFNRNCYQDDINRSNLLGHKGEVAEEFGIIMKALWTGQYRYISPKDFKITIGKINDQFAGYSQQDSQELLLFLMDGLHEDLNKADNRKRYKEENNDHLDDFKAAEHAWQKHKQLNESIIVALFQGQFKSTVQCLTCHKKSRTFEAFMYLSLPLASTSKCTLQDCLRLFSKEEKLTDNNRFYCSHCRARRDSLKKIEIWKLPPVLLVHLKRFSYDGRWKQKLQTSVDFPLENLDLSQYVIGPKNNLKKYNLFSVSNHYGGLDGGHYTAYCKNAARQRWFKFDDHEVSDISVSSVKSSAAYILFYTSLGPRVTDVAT
Experimental: The HA-Ub-VS probe (Hemagglutin tag-Ubiquitin-Vinyl Sulfone) was used in this study to directly visualize the activity of all deubiquitinating enzymes from native proteomes.
HEK293 cells were harvested and lysed on ice with a non denaturating buffer containing Tris pH7.4, 50 mM; NaCl, 150 mM; MgCl2, 5 mM; EDTA, 0.5 mM; DTT, 2 mM; ATP (adenosine triphosphate), 2 mM; NP40 (nonyl phenoxypolyethoxylethanol), 0.5% and glycerol, 10%. Samples were incubated at 4° C. for 1 hour and clarified. Proteins were then quantified by Bradford method (Bio-Rad Protein Assay). […] The ubiquitin labeling reaction was initiated by the addition of HA-Ub-VS (8 μg/ml) in labeling buffer (Tris pH7.6, 50 mM; MgCl2, 5 mM; EDTA, 0.5 mM; DTT, 2 mM; ATP, 2 mM; sucrose, 250 mM) and incubated at room temperature for 15 min. Samples were next heated at 100° C. for 10 minutes and briefly sonicated. They were resolved by SDS-polyacrylamide gel electrophoresis (SDS-PAGE), transferred to a nitrocellulose membrane and probed with antibodies against USP7, HA, UCH-L3, CYLD, USP8, USP5, USP10 and Stat3. […] Signals were detected by enhanced chemiluminescence (ECL; Amersham) according to the reagent manufacturer's instructions.

Chain of USP10 (Q14694 whole entry): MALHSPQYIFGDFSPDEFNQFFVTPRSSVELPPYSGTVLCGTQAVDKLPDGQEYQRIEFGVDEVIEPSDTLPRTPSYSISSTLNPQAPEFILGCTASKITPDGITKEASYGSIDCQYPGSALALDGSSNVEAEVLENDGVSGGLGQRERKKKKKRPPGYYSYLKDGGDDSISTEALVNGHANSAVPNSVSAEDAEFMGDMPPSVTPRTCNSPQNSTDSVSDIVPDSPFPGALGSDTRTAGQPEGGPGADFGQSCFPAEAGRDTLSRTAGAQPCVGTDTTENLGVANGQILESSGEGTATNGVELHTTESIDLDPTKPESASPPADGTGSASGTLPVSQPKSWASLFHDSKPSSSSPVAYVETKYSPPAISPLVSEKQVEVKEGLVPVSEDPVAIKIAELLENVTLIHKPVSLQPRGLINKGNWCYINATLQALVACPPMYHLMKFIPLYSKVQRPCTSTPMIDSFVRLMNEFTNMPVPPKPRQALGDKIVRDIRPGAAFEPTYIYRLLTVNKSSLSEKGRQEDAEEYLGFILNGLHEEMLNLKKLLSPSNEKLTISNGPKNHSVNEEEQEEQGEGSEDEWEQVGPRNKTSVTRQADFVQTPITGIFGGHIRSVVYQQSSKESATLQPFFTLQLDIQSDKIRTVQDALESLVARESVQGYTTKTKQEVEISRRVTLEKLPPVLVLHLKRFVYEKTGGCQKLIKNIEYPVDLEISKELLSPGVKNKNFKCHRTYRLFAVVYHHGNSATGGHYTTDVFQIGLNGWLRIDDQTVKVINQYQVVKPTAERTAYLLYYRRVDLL
Chain of USP7 (Q93009 whole entry): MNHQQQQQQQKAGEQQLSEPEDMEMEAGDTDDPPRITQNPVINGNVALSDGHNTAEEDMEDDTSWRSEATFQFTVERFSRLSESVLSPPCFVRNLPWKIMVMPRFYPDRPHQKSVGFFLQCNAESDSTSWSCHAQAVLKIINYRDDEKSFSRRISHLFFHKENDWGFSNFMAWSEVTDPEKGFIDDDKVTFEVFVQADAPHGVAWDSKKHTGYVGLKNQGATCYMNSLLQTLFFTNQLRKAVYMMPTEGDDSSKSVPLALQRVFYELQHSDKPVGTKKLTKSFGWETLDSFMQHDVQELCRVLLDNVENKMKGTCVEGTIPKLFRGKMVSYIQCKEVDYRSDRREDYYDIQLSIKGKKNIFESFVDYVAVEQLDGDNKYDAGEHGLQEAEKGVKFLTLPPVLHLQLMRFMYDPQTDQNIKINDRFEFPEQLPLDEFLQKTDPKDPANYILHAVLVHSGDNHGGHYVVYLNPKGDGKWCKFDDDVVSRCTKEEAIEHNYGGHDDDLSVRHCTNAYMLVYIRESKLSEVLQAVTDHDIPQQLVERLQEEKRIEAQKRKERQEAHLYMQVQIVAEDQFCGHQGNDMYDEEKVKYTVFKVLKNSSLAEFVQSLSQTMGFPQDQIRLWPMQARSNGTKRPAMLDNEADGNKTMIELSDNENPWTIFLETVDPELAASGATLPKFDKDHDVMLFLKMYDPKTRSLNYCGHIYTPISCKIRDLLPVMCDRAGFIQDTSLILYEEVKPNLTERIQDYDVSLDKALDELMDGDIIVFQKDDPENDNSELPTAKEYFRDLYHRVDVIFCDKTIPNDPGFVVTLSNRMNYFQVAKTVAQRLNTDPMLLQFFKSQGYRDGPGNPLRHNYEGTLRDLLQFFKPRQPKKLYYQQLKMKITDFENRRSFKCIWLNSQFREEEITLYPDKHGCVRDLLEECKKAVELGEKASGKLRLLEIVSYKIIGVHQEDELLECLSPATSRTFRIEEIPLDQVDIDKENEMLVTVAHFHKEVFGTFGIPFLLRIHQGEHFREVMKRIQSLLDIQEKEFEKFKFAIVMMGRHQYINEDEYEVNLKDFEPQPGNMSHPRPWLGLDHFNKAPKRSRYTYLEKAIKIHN

blocking of HAUbVS labeling of UCH-L3 (UCH-L3) | blocking of HAUbVS labeling of CYLD (CYLD) | blocking of HAUbVS labeling of USP10 (USP10) | recovery of USP7 activity after G50 gel filtration (USP7) | blocking of HAUbVS labeling of USP8 (USP8) | Structure (SMILES)
without any cross-reaction | without any cross-reaction | without any cross-reaction |  |  | O=C(CCc1ccccc1)N1CCC(O)(Cn2cnc3cc(Cl)ccc3c2=O)CC1 [Example 2, 7-chloro-3-{[4-hydroxy-1-(3-phenylpropanoyl)piperidin-4-yl]methyl}-3,4-dihydroquinazolin-4-one]
 |  |  | total restoration of USP7 activity |  | O=C(CCC1CCCC1)N1CCC(O)(Cn2cnc3ccccc3c2=O)CC1 [Example 3, 3-{[1-(3-cyclopentylpropanoyl)-4-hydroxypiperidin-4-yl]methyl}-3,4-dihydroquinazolin-4-one]
without any cross-reaction | without any cross-reaction | without any cross-reaction |  | without any cross-reaction | CC(Cc1cccs1)C(=O)N1CCC(O)(Cn2cnc3ccccc3c2=O)CC1 (centres unmarked) [Example 5, 3-({4-hydroxy-1-[2-methyl-3-(thiophen-2-yl)propanoyl]piperidin-4-yl}methyl)-3,4-dihydroquinazolin-4-one]
